Active and inactive are the calls of the source. The rule behind the calls is not given here.
Assays:
RAW264.7 [1] = test: Antiinflammatory activity in mouse RAW264.7 assessed as inhibition of LPS-induced NO production preincubated for 30 mins followed by LPS stimulation measured after 24 hrs by Griess reagent based assay; format: functional, cell-based
[2] = Inhibition of LPS-indued NF-kappaB activation in mouse RAW264.7 cells preincubated for 30 mins followed by LPS stimulation and measured after 10 hrs by luciferase assay; format: cell-based
RAW264.7 [3] = test: Inhibition of MAPK in mouse RAW264.7 cells assessed as inhibition of LPS-induced p38 phosphorylation at 30 uM preincubated for 30 mins followed by LPS stimulation by Western blotting analysis; format: cell-based
RAW264.7 [4] = test: Inhibition of NF-kappaB activation in mouse RAW264.7 cells assessed as inhibition of LPS-induced IkappaBalpha phosphorylation at 30 uM preincubated for 30 mins followed by LPS stimulation by Western blotting analysis; format: cell-based
RAW264.7 [5] = test: Inhibition of NF-kappaB activation in mouse RAW264.7 cells assessed as inhibition of LPS-induced relA phosphorylation at 30 uM preincubated for 30 mins followed by LPS stimulation by Western blotting analysis; format: cell-based
RAW264.7 [6] = test: Antiinflammatory activity in mouse RAW264.7 cells assessed as inhibition of LPS-induced TNFalpha mRNA expression at 30 uM preincubated for 30 mins followed by LPS stimulation by RT-PCR analysis; format: functional, cell-based
RAW264.7 [7] = test: Antiinflammatory activity in mouse RAW264.7 cells assessed as inhibition of LPS-induced iNOS mRNA expression at 30 uM preincubated for 30 mins followed by LPS stimulation by RT-PCR analysis; format: functional, cell-based
RAW264.7 [8] = test: Antiinflammatory activity in mouse RAW264.7 cells assessed as inhibition of LPS-induced iNOS protein expression at 30 uM preincubated for 30 mins followed by LPS stimulation by Western blot analysis; format: functional, cell-based
RAW264.7 [9] = test: Inhibition of MAPK in mouse RAW264.7 cells assessed as inhibition of LPS-induced JNK phosphorylation at 30 uM preincubated for 30 mins followed by LPS stimulation by Western blotting analysis; format: cell-based
RAW264.7 [10] = test: Inhibition of NF-kappaB activation in mouse RAW264.7 cells assessed as inhibition of LPS-induced IKKalpha phosphorylation at 30 uM preincubated for 30 mins followed by LPS stimulation by Western blotting analysis; format: cell-based
[11] = target: T1, Inhibitor of nuclear factor kappa-B kinase subunit alpha (Mus musculus) (UniProt Q60680); test: Inhibition of IKKalpha mediated NF-kappaB activation in mouse RAW264.7 cells assessed as reduction TWEAK-induced processing of p100 to p52 by Western blotting analysis; format: cell-based
T1 sequence (whole entry): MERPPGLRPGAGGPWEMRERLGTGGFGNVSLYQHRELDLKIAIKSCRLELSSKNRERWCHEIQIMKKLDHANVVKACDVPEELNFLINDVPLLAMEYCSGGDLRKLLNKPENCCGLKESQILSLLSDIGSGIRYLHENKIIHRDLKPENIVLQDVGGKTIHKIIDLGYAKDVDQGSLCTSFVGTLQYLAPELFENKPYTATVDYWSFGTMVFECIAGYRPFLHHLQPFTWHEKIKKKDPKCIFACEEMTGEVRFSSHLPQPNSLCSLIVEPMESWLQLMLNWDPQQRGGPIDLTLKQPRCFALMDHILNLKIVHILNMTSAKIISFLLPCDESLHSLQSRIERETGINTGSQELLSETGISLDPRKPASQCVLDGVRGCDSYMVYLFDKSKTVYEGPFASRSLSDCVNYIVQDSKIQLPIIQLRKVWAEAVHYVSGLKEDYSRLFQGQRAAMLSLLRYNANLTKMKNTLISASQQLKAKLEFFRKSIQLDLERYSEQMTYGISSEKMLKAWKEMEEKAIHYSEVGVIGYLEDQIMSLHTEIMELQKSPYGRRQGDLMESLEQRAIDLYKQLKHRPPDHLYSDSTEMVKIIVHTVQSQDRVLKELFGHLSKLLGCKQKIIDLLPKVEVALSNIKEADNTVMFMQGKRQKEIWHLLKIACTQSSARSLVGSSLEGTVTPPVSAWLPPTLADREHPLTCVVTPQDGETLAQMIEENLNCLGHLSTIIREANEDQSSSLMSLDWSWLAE

RAW264.7 [12] = test: Inhibition of NF-kappaB activation in mouse RAW264.7 cells assessed as inhibition of LPS-induced IKKbeta phosphorylation at 30 uM preincubated for 30 mins followed by LPS stimulation by Western blotting analysis; format: cell-based
RAW264.7 [13] = test: Antiinflammatory activity in mouse RAW264.7 cells assessed as inhibition of LPS-induced COX-2 mRNA expression at 30 uM preincubated for 30 mins followed by LPS stimulation by RT-PCR analysis; format: functional, cell-based
[14] = target: T1, Inhibitor of nuclear factor kappa-B kinase subunit alpha (Mus musculus); test: Inhibition of IKKalpha mediated NF-kappaB activation in mouse RAW264.7 cells assessed as TWEAK-induced degradation of TRAF3 by Western blotting analysis; format: cell-based
RAW264.7 [15] = test: Antiinflammatory activity in mouse RAW264.7 cells assessed as inhibition of LPS-induced IL-1beta mRNA expression at 30 uM preincubated for 30 mins followed by LPS stimulation by RT-PCR analysis; format: functional, cell-based
HEK293 = test: Inhibition of IKK phosphorylation in HEK293 cells transfected with IKKbeta by Western blotting analysis; format: cell-based; details: Homo sapiens
[16] = target: T1, Inhibitor of nuclear factor kappa-B kinase subunit alpha (Mus musculus); test: Inhibition of IKKalpha mediated NF-kappaB activation in mouse RAW264.7 cells assessed as reduction in LIGHT-induced processing of p100 to p52 by Western blotting analysis; format: cell-based
[17] = target: T1, Inhibitor of nuclear factor kappa-B kinase subunit alpha (Mus musculus); test: Inhibition of IKKalpha mediated NF-kappaB activation in mouse RAW264.7 cells assessed as TWEAK-induced degradation of TRAF2 by Western blotting analysis; format: cell-based
RAW264.7 [18] = test: Antiinflammatory activity in mouse RAW264.7 cells assessed as inhibition of LPS-induced COX-2 protein expression at 30 uM preincubated for 30 mins followed by LPS stimulation by Western blot analysis; format: functional, cell-based
RAW264.7 [19] = test: Antiinflammatory activity in mouse RAW264.7 cells assessed as inhibition of LPS-induced IL6 mRNA expression at 30 uM preincubated for 30 mins followed by LPS stimulation by RT-PCR analysis; format: functional, cell-based
RAW264.7 [20] = test: Antiinflammatory activity in mouse RAW264.7 cells assessed as inhibition of LPS-induced IL-1beta protein expression at 30 uM preincubated for 30 mins followed by LPS stimulation by Western blot analysis; format: functional, cell-based
RAW264.7 [21] = test: Inhibition of MAPK in mouse RAW264.7 cells assessed as inhibition of LPS-induced ERK phosphorylation at 30 uM preincubated for 30 mins followed by LPS stimulation by Western blotting analysis; format: cell-based
[22] = target: T2, Inhibitor of nuclear factor kappa-B kinase subunit beta (Mus musculus) (UniProt O88351); test: Inhibition of IKKbeta mediated NF-kappaB activation in mouse RAW264.7 cells assessed as inhibition of TWEAK-induced p65 phosphorylation on serine 536 by Western blotting analysis; format: cell-based
T2 sequence (whole entry): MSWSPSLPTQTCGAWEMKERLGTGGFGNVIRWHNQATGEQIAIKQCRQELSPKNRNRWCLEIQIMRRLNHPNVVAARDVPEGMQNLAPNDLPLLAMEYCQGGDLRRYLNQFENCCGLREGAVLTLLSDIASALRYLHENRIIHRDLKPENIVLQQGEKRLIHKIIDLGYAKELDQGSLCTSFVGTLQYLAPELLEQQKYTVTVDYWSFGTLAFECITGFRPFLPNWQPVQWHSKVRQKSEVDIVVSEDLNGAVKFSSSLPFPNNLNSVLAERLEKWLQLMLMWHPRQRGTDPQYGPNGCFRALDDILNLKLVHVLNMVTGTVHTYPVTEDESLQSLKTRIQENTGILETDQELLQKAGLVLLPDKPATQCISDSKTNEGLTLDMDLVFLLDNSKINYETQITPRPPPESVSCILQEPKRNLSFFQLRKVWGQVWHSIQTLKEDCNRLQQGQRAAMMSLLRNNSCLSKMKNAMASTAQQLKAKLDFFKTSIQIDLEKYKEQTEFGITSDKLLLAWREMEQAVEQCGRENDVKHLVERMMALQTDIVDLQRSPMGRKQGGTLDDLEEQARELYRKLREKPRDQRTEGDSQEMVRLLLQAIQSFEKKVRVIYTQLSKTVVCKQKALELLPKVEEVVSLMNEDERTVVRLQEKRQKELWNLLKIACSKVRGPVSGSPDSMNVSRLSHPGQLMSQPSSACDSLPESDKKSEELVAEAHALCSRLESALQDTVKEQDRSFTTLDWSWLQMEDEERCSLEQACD

Structure (SMILES): CC(=O)N1CCc2cc3c(c4c2[C@H]1Cc1ccccc1-4)OCO3
- IC50 (RAW264.7 [1]): > 50 µM

Structure (SMILES): COc1cc([C@H]2OC[C@H]3[C@@H]2CO[C@@H]3c2cc(OC)c(O)c(OC)c2)cc(OC)c1O [SYRINGARESINOL]
- IC50 (RAW264.7 [1]): > 50 µM

Structure (SMILES): COc1cc2ccnc3c2c(c1OC)-c1ccccc1C3=O [LYSICAMINE]
- IC50 (RAW264.7 [1]): 6.4 µM
- IC50 [2]: 17.8 µM

Structure (SMILES): COc1cc(C(=O)C2CO[C@H](c3cc(OC)c(O)c(OC)c3)[C@H]2CO)cc(OC)c1O (stereo partly drawn)
- IC50 (RAW264.7 [1]): > 50 µM

Structure (SMILES): C=CCc1cc(OC)c(OC(C)Cc2cc(OC)c(OC)c(OC)c2)c(OC)c1 (racemic)
- IC50 (RAW264.7 [1]): > 50 µM

Structure (SMILES): O=C1c2ccccc2-c2c3c(cc4ccnc1c24)OCO3 [LIRIODENINE]
- IC50 (RAW264.7 [1]): 10.5 µM

Structure (SMILES): CCCCC/C=C\C=C\C(=O)NCCc1ccccc1
- inhibition (RAW264.7 [3]): inactive
- inhibition (RAW264.7 [4]): Active
- inhibition (RAW264.7 [5]): Active
- IC50 (RAW264.7 [1]): 13.3 µM
- Activity (RAW264.7 [6]): Active
- Activity (RAW264.7 [7]): Active
- Activity (RAW264.7 [8]): Active
- inhibition (RAW264.7 [9]): inactive
- inhibition (RAW264.7 [10]): Active
- IC50 [2]: 21.6 µM
- inhibition [11]: inactive
- inhibition (RAW264.7 [12]): Active
- Activity (RAW264.7 [13]): Active
- inhibition [14]: inactive
- Activity (RAW264.7 [15]): Active
- inhibition (HEK293): Active
- inhibition [16]: inactive
- inhibition [17]: inactive
- Activity (RAW264.7 [18]): Active
- Activity (RAW264.7 [19]): Active
- Activity (RAW264.7 [20]): Active
- inhibition (RAW264.7 [21]): inactive
- inhibition [22]: Active

Structure (SMILES): COc1c2c(c3c4c(nccc14)C(=O)c1ccccc1-3)OCO2
- IC50 (RAW264.7 [1]): > 50 µM

Structure (SMILES): COc1cc(/C=C/C(=O)NCCc2ccc(O)cc2)ccc1O [N-TRANS-FERULOYL TYRAMINE]
- IC50 (RAW264.7 [1]): > 50 µM

Structure (SMILES): CNC(=N)NCCC[C@H](N)C(=O)O [TILARGININE]
- IC50 (RAW264.7 [1]): 35.5 µM

Structure (SMILES): C=C1C(=O)O[C@@H]2/C=C(\C)CC/C=C(\C)C[C@@H](O)[C@@H]12 [EUPATOLIDE]
- IC50 (RAW264.7 [1]): 7.3 µM
- IC50 [2]: 12.2 µM

Structure (SMILES): COc1cc2c3c(c1OC)-c1ccccc1C[C@H]3N(C(C)=O)CC2
- IC50 (RAW264.7 [1]): > 50 µM

Structure (SMILES): COc1cc2c(cc1OC)-c1c(OC)c(OC)cc3ccnc(c13)C2=O [OXOGLAUCINE]
- IC50 (RAW264.7 [1]): > 50 µM

Structure (SMILES): C=C1C(=O)O[C@@H]2/C=C(\C)CC/C=C(\C)C[C@@H](OC(C)=O)[C@@H]12
- IC50 (RAW264.7 [1]): 19.8 µM

Structure (SMILES): COc1c(OC)c2c3c(nccc3c1OC)C(=O)c1cc3c(cc1-2)OCO3 [OXOPHOEBINE]
- IC50 (RAW264.7 [1]): 34.2 µM
- IC50 [2]: 28.5 µM

Structure (SMILES): O=Cc1ccc(O)cc1 [4-HYDROXYBENZALDEHYDE]
- IC50 (RAW264.7 [1]): > 50 µM

Structure (SMILES): CC(=O)N(C)CCc1ccccc1
- IC50 (RAW264.7 [1]): > 50 µM

Structure (SMILES): C=CCc1cc(OC)c(O[C@H](C)Cc2cc(OC)c3c(c2)OCO3)c(OC)c1
- IC50 (RAW264.7 [1]): > 50 µM
